PMC10354055, “An optimized Nurr1 agonist provides disease-modifying effects in Parkinson’s disease models” (Nature Communications, 2023)
Values joined by “and” are separate entries in the source; they are usually repeats but may differ in a detail not shown here. Identical values can stand only once.

Tests used:
Nurr1-LBD = Nurr1-LBD (Homo sapiens, UniProt P43354); assay: [3H]-CQ radioligand competition binding assay; details: Fig. 1h
Description: Saturation and competition assays were performed as previously described. For saturation assay, 0.2 µM of Nurr1-LBD and 125-10,000 nM of [^3H]-CQ were incubated in binding buffer (20 mM sodium acetate buffer (pH 5.2)) at 4 °C overnight. […] Assay mixtures were applied to GF/B filters (Brandel Inc.) to capture Nurr1-LBD bounded ligands. […] All graphs and IC50 values were generated using the non-linear regression program in GraphPad Prism version 8.0.2.

N27-A cells [1] = assay: Cell viability, MTT reduction, MPP+-treated N27-A cells; type: cell-based, rat; details: Fig. 2a, CQ 100 µM, 4A7C-301 1 µM
N27-A cells [2] = assay: Mitochondrial activity assay, Seahorse XFp, N27-A cells; type: cell-based, rat; set-up: Seahorse time trace (OCR): unit not given here; details: for OCR changes after FCCP injection: MPP+ co-treatment, individual replicates (Supplementary Figure S1o); for Seahorse time trace (OCR) / ATP turnover: replicates; for ATP turnover: Fig. S1n, with MPP+
Description: Mitochondrial activity was measured using the Seahorse XFp analyzer (Agilent Technologies) according to the manufacturer’s instruction. Briefly, cells were plated onto wells of a XFp cell culture miniplate and incubated in a 37 °C incubator overnight. The assay was performed after cells were equilibrated for 1 h in XF assay medium supplemented with 10 mM D-glucose, 5 mM sodium pyruvate, and 2 mM glutamax in a non-CO2 incubator. Mitochondrial activity was monitored through sequential injections of 1 μM oligomycin, 2 μM carbonyl cyanide-4 (trifluoromethoxy) phenylhydrazone (FCCP) and 0.5 μM rotenone/antimycin A to calculate basal respiration (= baseline oxygen consumption rate (OCR)−rotenone/antimycin A OCR), maximal respiration (= FCCP OCR−rotenone/antimycin A OCR), ATP turnover (= baseline OCR−oligomycin OCR), and OCR changes after FCCP injection (= FCCP OCR−oligomycin OCR). Each plotted value was normalized to total protein quantified using a Bradford protein assay (Bio-Rad) and analyzed using the Seahorse WAVE Desktop software (Agilent Technologies).

MPTP-induced male mice = assay: Dopamine ELISA in SN and STR, MPTP-induced mice; type: in vivo, mouse; details: for DA: individual animals
Description: MPTP (Sigma-Aldrich) was intraperitoneally (i.p.) injected (30 mg/kg) for 5 days (Day 1-5). […] To test dyskinetic involuntary behavior, an L-DOPA injected group was included, which received 50 mg/kg of L-DOPA and 15 mg/kg of benserazide (Sigma-Aldrich) (i.p.) for 16 days (Day 1–16). All compounds were administered 6 h post-MPTP injection to avoid any effect of compounds on the MPTP metabolism in the brain. Motor and non-motor related behavior tests were performed on the following days as described in Fig. 4a in an assessor- and observer-blinded fashion. Pre-training and baseline setup for motor-related behaviors were performed 3 days prior to the injections. Mice were sacrificed and subjected to immunohistochemistry. Mice were housed at the Animal Care Facilities of McLean Hospital under a 12-h light/12-h dark cycle, ambient temperature and humidity. Animals were handled in accordance with McLean Hospital’s Institutional Animal Care and Use Committee (Protocol #: 2015N000002) and followed National Institutes of Health guidelines.
For MPTP-induced mice, the left hemisphere of each group (n = 5) was used for analysis and compared to the vehicle-treated group (VEH). For AAV-αSyn-injected mouse model, the viral vector injected side (left hemisphere; ipsilateral) of each group (n = 3) was compared to the non-injected side (right hemisphere; contralateral).

[3] = test system: AAV-αSyn-induced male mice; assay: Rotarod, AAV-αSyn-induced PD model mice; type: in vivo, mouse; details: αSynWT and αSynA53T mice; CQ 40, 4A7C-301 5 mg/kg/day i.p.
From the text: (§1) Adeno-associated viruses (AAVs) expressing GFP only or αSyn (wild-type or A53T) were kindly provided by Dr. Yoon Seong Kim from the University of Central Florida. Recombinant AAV vectors were produced using modified pAAV-IRES-hrGFP (Agilent) to express wild-type and mutant human αSyn under control of the CMV promoter. Viral particles (AAV2) were produced at the University of Iowa Viral Vector Core according to standard operating procedures (https://medicine.uiowa.edu/vectorcore/). […] AAV vectors were delivered into the substantia nigra unilaterally by stereotaxic surgery.
Mice were pre-trained on an automated 5-lane rotarod unit (10 rpm, 3 min) for 2 days and the baseline was measured (10 rpm, 90 sec) before the rotarod test (3 days before the MPTP injection or the first rotarod test at week 2). Rotarod measurements were performed using an accelerating protocol, accelerated smoothly from 2 to 30 rpm for 5 min. Time on the rotating rod was measured automatically by placing a trip switch under the floor beneath the rotating drum.

[4] = test system: AAV-αSyn-induced male mice; assay: Pole test, AAV-αSyn-induced PD model mice; type: in vivo, mouse; details: αSynWT and αSynA53T mice; CQ 40, 4A7C-301 5 mg/kg/day i.p.
From the text: as §1
Mice were trained to descend a vertical metal rod wrapped with rough tape (80 cm high, 12 mm diameter) once per day for 2 days, and then the baseline was measured before the pole test (3 days before the MPTP injection or the first pole test at week 2). Mice were placed head-upward on the pole and total descent time was recorded.

Nurr1-LBD, sequence (P43354 360-595 limits assumed, species assumed): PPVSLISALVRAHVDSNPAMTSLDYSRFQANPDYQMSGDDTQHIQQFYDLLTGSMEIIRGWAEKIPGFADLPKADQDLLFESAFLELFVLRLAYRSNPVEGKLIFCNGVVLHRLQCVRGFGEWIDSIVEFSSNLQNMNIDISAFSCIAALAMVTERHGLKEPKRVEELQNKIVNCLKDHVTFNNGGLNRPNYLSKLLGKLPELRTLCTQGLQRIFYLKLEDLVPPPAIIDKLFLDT

With `CCN(CC)CCCC(C)Nc1ccnc2cc(Cl)ccc12` (stereo not shown) [CQ, chloroquine] the “% of Specific binding” value (Nurr1-LBD; competitor conc. 0.0001 (µM)) was 118.1264% and 84.3678% and 87.5058%, the “% of Specific binding” value (Nurr1-LBD; competitor conc. 0.001 (µM)) was 105.0129% and 88.1206% and 97.7170% and the “% of Specific binding” value (Nurr1-LBD; competitor conc. 0.01 (µM)) was 86.0400% and 103.1100% and 99.0600%. The “% of Specific binding” value (Nurr1-LBD; competitor conc. 0.1 (µM)) was 92.2329% and 89.2060% and 101.4170%, the “% of Specific binding” value (Nurr1-LBD; competitor conc. 1 (µM)) was 91.1049% and 87.6783% and 85.5188% and the “% of Specific binding” value (Nurr1-LBD; competitor conc. 10 (µM)) was 73.9055% and 78.9516% and 86.9689%. For the same molecule, the “% of Specific binding” value (Nurr1-LBD; competitor conc. 100 (µM)) was 60.9070% and 71.4020% and 69.8520%, the “% of Specific binding” value (Nurr1-LBD; competitor conc. 1000 (µM)) was 61.7083% and 49.9850% and 61.0054% and the “% of Specific binding” value (Nurr1-LBD; competitor conc. 10000 (µM)) was 29.9520% and 33.4512% and 36.5796%. For the same molecule, the “% of Specific binding” value (Nurr1-LBD; competitor conc. 100000 (µM)) was 19.5396% and 23.9835% and 21.7371%, the “% of Specific binding” value (Nurr1-LBD; competitor conc. 1000000 (µM)) was 14.1307% and 7.3236% and 10.4343% and the IC50 (Nurr1-LBD; competition with [3H]-CQ) was 1030 nM and 1000 nM. The “MTT reduction (%)” value (N27-A cells [1]; Control) was 57.8947% and 66.3158% and 61.0526% and 65.2632%, the “MTT reduction (%)” value (N27-A cells [1]; Nurr1 KD) was 34.0206% and 28.866% and 35.0515% and 27.8351% and the “MTT reduction (%)” value (N27-A cells [1]; Nurr1 OE) was 79.3814% and 82.4742% and 84.5361% and 87.6289%. The “OXPHOS capacity reduced by MPP+ (in words)” value (N27-A cells [2]; CQ 100 µM, 4A7C-301 1 µM) was “efficiently restored”, the “OCR changes after FCCP injection” value (N27-A cells [2]; Control N27-A cells) was 8.55 pmol/min/µg protein and 7.31 pmol/min/µg protein and 2.32 pmol/min/µg protein and 23.52 pmol/min/µg protein and the “Seahorse time trace (OCR)” value (N27-A cells [2]; Fig. S1j/k, Control + MPP+, time 2 min) was 3.66 and 2.51 and 27.76. The “Seahorse time trace (OCR)” value (N27-A cells [2]; Fig. S1j/k, Control + MPP+, time 8 min) was 3.46 and 2.01 and 20.11, the “Seahorse time trace (OCR)” value (N27-A cells [2]; Fig. S1j/k, Control + MPP+, time 15 min) was 2.32 and 1.98 and 22.16 and 9.29 and the “Seahorse time trace (OCR)” value (N27-A cells [2]; Fig. S1j/k, Control + MPP+, time 21 min) was 0.27 and 19.75 and 5.17. The “Seahorse time trace (OCR)” value (N27-A cells [2]; Fig. S1j/k, Control + MPP+, time 28 min) was 0.58 and 1.26 and 17.08 and 5.33, the “Seahorse time trace (OCR)” value (N27-A cells [2]; Fig. S1j/k, Control + MPP+, time 34 min) was 0.71 and 18.32 and 7.16 and the “Seahorse time trace (OCR)” value (N27-A cells [2]; Fig. S1j/k, Control + MPP+, time 41 min) was 7.58 and 3.41 and 40.6 and 13.72. For the same molecule, the “Seahorse time trace (OCR)” value (N27-A cells [2]; Fig. S1j/k, Control + MPP+, time 47 min) was 6.82 and 3.28 and 39.31, the “Seahorse time trace (OCR)” value (N27-A cells [2]; Fig. S1j/k, Control + MPP+, time 54 min) was 6.13 and 3.21 and 37.92 and 10.02 and the “Seahorse time trace (OCR)” value (N27-A cells [2]; Fig. S1j/k, Control + MPP+, time 61 min) was 0.03 and 1.24 and 16.5 and 4.04. For the same molecule, the “Seahorse time trace (OCR)” value (N27-A cells [2]; Fig. S1j/k, Control + MPP+, time 67 min) was 0.55 and 1.35 and 12.69 and 5.31, the “Seahorse time trace (OCR)” value (N27-A cells [2]; Fig. S1j/k, Control + MPP+, time 74 min) was 1.39 and 17 and 5.99 and the “Seahorse time trace (OCR)” value (N27-A cells [2]; Fig. S1j, Nurr1 OE + MPP+, time 2 min) was 26.25 and 15.29. The “Seahorse time trace (OCR)” value (N27-A cells [2]; Fig. S1j, Nurr1 OE + MPP+, time 8 min) was 18.52 and 15.98, the “Seahorse time trace (OCR)” value (N27-A cells [2]; Fig. S1j, Nurr1 OE + MPP+, time 15 min) was 20.57 and 30.55 and 13.93 and the “Seahorse time trace (OCR)” value (N27-A cells [2]; Fig. S1j, Nurr1 OE + MPP+, time 21 min) was 5.95 and 6.99 and 4.75 and 6.7. The “Seahorse time trace (OCR)” value (N27-A cells [2]; Fig. S1j, Nurr1 OE + MPP+, time 28 min) was 5.18 and 6.25 and 5.44 and 7.19, the “Seahorse time trace (OCR)” value (N27-A cells [2]; Fig. S1j, Nurr1 OE + MPP+, time 34 min) was 4.78 and 5.8 and 5.34 and 7.96 and the “Seahorse time trace (OCR)” value (N27-A cells [2]; Fig. S1j, Nurr1 OE + MPP+, time 41 min) was 28.78 and 44.27 and 30.42. The “Seahorse time trace (OCR)” value (N27-A cells [2]; Fig. S1j, Nurr1 OE + MPP+, time 47 min) was 28.4 and 36.09 and 14.17, the “Seahorse time trace (OCR)” value (N27-A cells [2]; Fig. S1j, Nurr1 OE + MPP+, time 54 min) was 26.28 and 35.06 and 18.57 and 28.22 and the “Seahorse time trace (OCR)” value (N27-A cells [2]; Fig. S1j, Nurr1 OE + MPP+, time 61 min) was 4.76 and 5.21 and 0.65 and 4.3. The “Seahorse time trace (OCR)” value (N27-A cells [2]; Fig. S1j, Nurr1 OE + MPP+, time 67 min) was 4.21 and 5.44 and 0.96 and 4.79, the “Seahorse time trace (OCR)” value (N27-A cells [2]; Fig. S1j, Nurr1 OE + MPP+, time 74 min) was 4.26 and 6.26 and 5.01 and the “Seahorse time trace (OCR)” value (N27-A cells [2]; Fig. S1k, Nurr1 KD + MPP+, time 2 min) was 19.09 and 7.42 and 5.75 and 10.38. The “Seahorse time trace (OCR)” value (N27-A cells [2]; Fig. S1k, Nurr1 KD + MPP+, time 8 min) was 18.47 and 7.53 and 4.86 and 8.38, the “Seahorse time trace (OCR)” value (N27-A cells [2]; Fig. S1k, Nurr1 KD + MPP+, time 15 min) was 15.57 and 7.6 and 4.41 and 7.39 and the “Seahorse time trace (OCR)” value (N27-A cells [2]; Fig. S1k, Nurr1 KD + MPP+, time 21 min) was 1.43 and 1.21. The “Seahorse time trace (OCR)” value (N27-A cells [2]; Fig. S1k, Nurr1 KD + MPP+, time 28 min) was 13.44 and 8.97 and 1.24, the “Seahorse time trace (OCR)” value (N27-A cells [2]; Fig. S1k, Nurr1 KD + MPP+, time 34 min) was 8.6 and the ATP turnover (N27-A cells [2]; Control cells) was 6.76 pmol/min/µg protein and 3.39 pmol/min/µg protein and 1.42 pmol/min/µg protein and 10.68 pmol/min/µg protein. The ATP turnover (N27-A cells [2]; Nurr1 KD cells) was 7.63 pmol/min/µg protein and -1 pmol/min/µg protein and 4.86 pmol/min/µg protein and 9.17 pmol/min/µg protein, the ATP turnover (N27-A cells [2]; Nurr1 OE cells) was 19.32 pmol/min/µg protein and 24.75 pmol/min/µg protein and 13.77 pmol/min/µg protein and 18.27 pmol/min/µg protein and the “OCR changes after FCCP injection” value (N27-A cells [2]; Nurr1 KD N27-A cells) was 12.59 pmol/min/µg protein and 4.43 pmol/min/µg protein and 9.84 pmol/min/µg protein and 17.76 pmol/min/µg protein. The “OCR changes after FCCP injection” value (N27-A cells [2]; Nurr1 OE N27-A cells) was 24 pmol/min/µg protein and 37.47 pmol/min/µg protein and 12.22 pmol/min/µg protein and 23.73 pmol/min/µg protein, the “DA levels in the SN (in words)” value (MPTP-induced male mice) was “did so only in the SN” and the “DA levels in the STR (in words)” value (MPTP-induced male mice) was “only in the SN”. For the same molecule, the DA (MPTP-induced male mice; Supplementary Figure S10b) was 49.362 pg/mL and 39.048 pg/mL and 57.173 pg/mL and 55.478 pg/mL and 57.153 pg/mL, the DA (MPTP-induced male mice; Supplementary Figure S10c) was 418.063 pg/mL and 471.117 pg/mL and 318.027 pg/mL and 389.411 pg/mL and 268.088 pg/mL and the “motor deficits, rotarod (latency to fall) (in words)” value [3] was “partial recovery”. The “motor deficits, pole test (in words)” value [4] was “partial recovery”.
